Among the data in patent US8269015B2, “4-azetidinyl-1-heteroaryl-cyclohexane antagonists of CCR2” (Janssen Pharmaceutica N.V., priority 2009, dated 2012) are IC50 values, retold here.

The experiment deals with T1, CCR2 (Homo sapiens, UniProt P41597).
T1 construct: host or cells: THP-1 (human monocytic cell line)
T1 sequence (P41597 1-360 isoform P41597-2): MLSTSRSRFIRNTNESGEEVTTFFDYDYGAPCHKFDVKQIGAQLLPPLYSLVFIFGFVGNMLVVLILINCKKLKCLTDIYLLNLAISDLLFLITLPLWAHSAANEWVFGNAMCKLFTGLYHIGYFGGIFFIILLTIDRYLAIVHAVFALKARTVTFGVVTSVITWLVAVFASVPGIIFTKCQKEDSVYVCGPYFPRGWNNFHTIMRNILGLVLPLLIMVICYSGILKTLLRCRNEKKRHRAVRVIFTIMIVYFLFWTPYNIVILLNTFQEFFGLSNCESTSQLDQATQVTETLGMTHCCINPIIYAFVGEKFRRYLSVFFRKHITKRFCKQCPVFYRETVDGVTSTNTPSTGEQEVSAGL
The experiment is described as follows: MCP-1 Receptor Binding Assay in THP-1 Cells (125I labeled MCP-1). As to conditions: 0.5 nM 125I labeled MCP-1, 2 hours at 30° C., read-out: Inhibition of MCP-1 Binding IC50, CCR2 Binding. As to the method: Compounds of the invention were subjected to various representative biological tests. […] MCP-1 Receptor Binding Assay in THP-1 Cells
Human monocytic cell line THP-1 cells were obtained from American Type Culture Collection (Manassas, Va., USA). […] The cell density was maintained […].
1 μM cold MCP-1 was used for nonspecific binding.
What is called IC50 is the concentration at which inhibition is half-maximal. For the compound `Nc1ccnc(C2CCC(N3CC(NC(=O)CNC(=O)c4cccc(C(F)(F)F)c4)C3)CC2)c1` (stereo not drawn) [Example 33, N-({1-[4-(4-Amino-pyridin-2-yl)-cyclohexyl]-azetidin-3-ylcarbamoyl}-methyl)-3-trifluoromethyl-benzamide], the half-inhibitory concentration (IC50) turned out to be 250 nM. In the case of `Nc1cccc(C2CCC(N3CC(NC(=O)CNC(=O)c4cc(F)cc(C(F)(F)F)c4)C3)CC2)n1` (stereo not drawn) [Example 34, N-({1-[4-(6-Amino-pyridin-2-yl)-cyclohexyl]-azetidin-3-ylcarbamoyl}-methyl)-3-fluoro-5-trifluoromethyl-benzamide] it was 120 nM; in that of `CCn1cc(C2CCC(N3CC(NC(=O)CNC(=O)c4cccc(C(F)(F)F)c4)C3)CC2)ccc1=O` (stereo not drawn) [Example 39a, N-({1-[4-(1-Ethyl-6-oxo-1,6-dihydro-pyridin-3-yl)-cyclohexyl]-azetidin-3-ylcarbamoyl}-methyl)-3-trifluoromethyl-benzamide], 37 nM; in that of `N#CCn1cc(C2CCC(N3CC(NC(=O)CNC(=O)c4cccc(C(F)(F)F)c4)C3)CC2)ccc1=O` (stereo not drawn) [Example 41, N-({1-[4-(1-Cyanomethyl-6-oxo-1,6-dihydro-pyridin-3-yl)-cyclohexyl]-azetidin-3-ylcarbamoyl}-methyl)-3-trifluoromethyl-benzamide], 130 nM. In the case of `O=C(CNC(=O)c1cccc(C(F)(F)F)c1)NC1CN(C2CCC(c3ccc(=O)n(CCO)c3)CC2)C1` (stereo not drawn) [Example 43, N-[(1-{4-[1-(2-Hydroxy-ethyl)-6-oxo-1,6-dihydro-pyridin-3-yl]-cyclohexyl}-azetidin-3-ylcarbamoyl)-methyl]-3-trifluoromethyl-benzamide] it was 330 nM; in that of `O=C(CNC(=O)c1cccc(C(F)(F)F)c1)NC1CN(C2CCC(c3cccc(=O)[nH]3)CC2)C1` (stereo not drawn) [Example 47, N-({1-[4-(6-Oxo-1,6-dihydro-pyridin-2-yl)-cyclohexyl]-azetidin-3-ylcarbamoyl}-methyl)-3-trifluoromethyl-benzamide], 180 nM.

On to `Cn1cccc(C2CCC(N3CC(NC(=O)CNC(=O)c4cccc(C(F)(F)F)c4)C3)CC2)c1=O` (stereo not drawn) [Example 48, N-({1-[4-(1-Methyl-2-oxo-1,2-dihydro-pyridin-3-yl)-cyclohexyl]-azetidin-3-ylcarbamoyl}-methyl)-3-trifluoromethyl-benzamide], for which the IC50 was found to be 630 nM. In the case of `O=C(CNC(=O)c1ccccc1)NC1CN(C2CCC(c3c[nH]c4ccccc34)CC2)C1` (stereo not drawn) [Example 49, N-({1-[4-(1H-Indol-3-yl)-cyclohexyl]-azetidin-3-ylcarbamoyl}-methyl)-benzamide] it was greater than 25000 nM; in that of `O=C(CNC(=O)c1cccc(C(F)(F)F)c1)NC1CN(C2CCC(c3c[nH]c4ccccc34)CC2)C1` (stereo not drawn) [Example 50, N-({1-[4-(1H-Indol-3-yl)-cyclohexyl]-azetidin-3-ylcarbamoyl}-methyl)-3-trifluoromethyl-benzamide], 920 nM.

`NC(=O)c1ncc(C2CCC(N3CC(NC(=O)CNC(=O)c4cccc(C(F)(F)F)c4)C3)CC2)s1` (stereo not drawn) [Example 53, 5-(4-{3-[2-(3-Trifluoromethyl-benzoylamino)-acetylamino]-azetidin-1-yl}-cyclohexyl)-thiazole-2-carboxylic acid amide]: the IC50 is 1000 nM.

With `O=C(CNC(=O)c1cccc(C(F)(F)F)c1)NC1CN(C2CCC(c3c[nH]c(=O)s3)CC2)C1` (stereo not drawn) [Example 54, N-({1-[4-(2-Oxo-2,3-dihydro-thiazol-5-yl)-cyclohexyl]-azetidin-3-ylcarbamoyl}-methyl)-3-trifluoromethyl-benzamide], the IC50 came out at 340 nM. The figure for `Nc1noc(N)c1C1CCC(N2CC(NC(=O)CNC(=O)c3cccc(C(F)(F)F)c3)C2)CC1` (stereo not drawn) [Example 55, N-({1-[4-(3,5-Diimino-isoxazolidin-4-yl)-cyclohexyl]-azetidin-3-ylcarbamoyl}-methyl)-3-trifluoromethyl-benzamide] is 125 nM; for `Cn1cc(C2CCC(N3CC(NC(=O)CNC(=O)c4cccc(C(F)(F)F)c4)C3)CC2)c(=O)[nH]c1=O` (stereo not drawn) [Example 56, N-({1-[4-(1-Methyl-2,4-dioxo-1,2,3,4-tetrahydro-pyrimidin-5-yl)-cyclohexyl]-azetidin-3-ylcarbamoyl}-methyl)-3-trifluoromethyl-benzamide] it is 5800 nM.

As for `O=C(CNC(=O)c1cccc(C(F)(F)F)c1)NC1CN(C2CCC(c3noc(=O)[nH]3)CC2)C1` (stereo not drawn) [Example 57, N-({1-[4-(5-Oxo-4,5-dihydro-[1,2,4]oxadiazol-3-yl)-cyclohexyl]-azetidin-3-ylcarbamoyl}-methyl)-3-trifluoromethyl-benzamide], the IC50 amounted to 1100 nM. In the case of `O=C(CNC(=O)c1cccc(C(F)(F)F)c1)NC1CN(C2CCC(c3noc(C(Cl)(Cl)Cl)n3)CC2)C1` (stereo not drawn) [Example 58, N-({1-[4-(5-Trichloromethyl-[1,2,4]oxadiazol-3-yl)-cyclohexyl]-azetidin-3-ylcarbamoyl}-methyl)-3-trifluoromethyl-benzamide], the IC50 was determined as 510 nM.
